Earlier results, collected in patent US6503920B1, “Cabergoline and pramipexole: new uses and combinations” (Pharmacia & Upjohn Company, priority 1998, dated 2003).

Legend:
PSP patients [1] = conditions: controlled trial
PSP patients [2] = conditions: 120 mg/day, 2-week open label, two patients
PSP patients [3] = tested on: PSP patients
PSP patients [4] = conditions: 750-1500 mg per day
PSP patients [5] = conditions: 10 patients, double blind crossover
PSP patients [6] = conditions: controlled trial of 7 subjects

For `CCCN1C[C@H](CSC)C[C@@H]2c3cccc4[nH]cc(c34)C[C@H]21` [Pergoline], the “subjects with mild antiparkinsonian effects” value (PSP patients [1]) is given as 2/3.
In the case of `c1ccc2c(c1)OCC(C1=NCCN1)O2` (stereo not drawn) [Idazoxan], the marginal improvement (PSP patients [2]) is given as 12-34% and the side effects (PSP patients [2]) is given as “sympathetic side effects were common”.
In the case of `N[C@@H](Cc1ccc(O)c(O)c1)C(=O)O` [L-dopa], the “most common side effects reported” value (PSP patients [3]) is listed as “development of hallucinations”, the “patients showing no effect” value (PSP patients [4]) is listed as 44% and the “response rate showing mild to moderate improvement on the basis of clinical impressions” value (PSP patients [4]) is listed as 54%.
For `CCN1C(=O)CC2(CCN(C)CC2)C1=O` [RS-86], the “motor or cognitive changes” value (PSP patients [5]) is given as “no consistent motor or cognitive changes”.
In the case of `CCN(CC)C(=O)N[C@H]1C=C2c3cccc4[nH]cc(c34)C[C@H]2N(C)C1` [Lisuride], the “overall result of the trial” value (PSP patients [6]) is given as “not any significant results” and the “patients with mild improvement” value (PSP patients [6]) is given as “two patients had a mild improvement”.
